# Reference: patent US20070117813A1 (priority 2003, published 2007)
# Where two headings read alike, the source gives them in different places.
# Experiments:
# Phytophthora infestans = format: in vivo; settings: tomato plants, protective spray, assessed after 6 days
# Plasmopara viticola = test: Activity against peronospora of grapevines caused by Plasmopara viticola; format: in vivo; settings: grapevines cultivar Riesling
# Method: The active compounds, separately or jointly, were prepared as a stock solution comprising 0.25% by weight of active compound in acetone or DMSO. 1% by weight of the emulsifier Uniperol® EL (wetting agent having emulsifying and dispersant action based on ethoxylated alkylphenols) was added to this solution, and the mixture was diluted with water to the desired concentration.
# Use example 2—Activity against peronospora of grapevines caused by Plasmopara viticola
# Leaves of potted grapevines of the cultivar “Riesling” were sprayed to runoff point with an aqueous suspension having the concentration of active compounds stated below. The next day, the undersides of the leaves were inoculated with an aqueous zoospore suspension of Plasmopara viticola. The grapevines were then initially placed in a water-vapor-saturated chamber at 24° C. for 48 hours and then in a greenhouse at temperatures between 20 and 30° C. for 5 days. After this period of time, the plants were, to promote sporangiophore eruption, again placed in a humid chamber for 16 hours. The extent of the development of the infection on the undersides of the leaves was then determined visually.
# Evaluation was carried out analogously to example 1.
compound,measurement,setting,value
"CC(C)(C)C(O)(CCc1ccc(Cl)cc1)Cn1cncn1 (racemic) [II, (R,S)-1-(4-chlorophenyl)-4,4-dimethyl-3-(1H-1,2,4-triazol-1-ylmethyl)pentan-3-ol]",Efficacy in % of the untreated control,Phytophthora infestans; 16 ppm in the spray liquor,0%
same,Efficacy in % of the untreated control,Phytophthora infestans; 250 ppm in the spray liquor,0%
same,Efficacy in % of the untreated control,Plasmopara viticola; 1 ppm in the spray liquor,0%
same,Efficacy in % of the untreated control,Plasmopara viticola; 4 ppm in the spray liquor,28%
"CC1CCN(c2c(-c3c(F)cc(F)cc3F)c(Cl)nc3ncnn23)CC1 [I, 5-chloro-7-(4-methylpiperidin-1-yl)-6-(2,4,6-trifluorophenyl)-[1,2,4]triazolo[1,5-a]pyrimidine]",Efficacy in % of the untreated control,Phytophthora infestans; 63 ppm in the spray liquor,9%
same,Efficacy in % of the untreated control,Plasmopara viticola; 1 ppm in the spray liquor,4%
same,Efficacy in % of the untreated control,Plasmopara viticola; 4 ppm in the spray liquor,52%
CC1CCN(c2c(-c3c(F)cccc3Cl)c(Cl)nc3ncnn23)CC1 [comparative A],Efficacy in % of the untreated control,Phytophthora infestans; 63 ppm in the spray liquor,0%
C[C@H](Nc1c(-c2c(F)cc(F)cc2F)c(Cl)nc2ncnn12)C(F)(F)F [comparative B],Efficacy in % of the untreated control,Phytophthora infestans; 63 ppm in the spray liquor,9%
